According to US20250197864A1, “LNCRNA TRANSCRIPTS IN MELANOMAGENESIS” (The Regents of the University of California, priority 2021, published 2025):

Test system: gene expression in D04 melanoma cells
Assay: RNA-Seq differential expression analysis (DESeq2)
Type: cell-based, human
Method: Total RNA was isolated using the RNeasy mini Kit (QIAGEN) following the manufacturer's protocol. Quality check for extracted RNA was done using 2100 Bioanalyzer (Agilent Technologies, USA) or Tapestation System (Agilent Technologies, USA). […] For samples used for identification of MAPK-responsive lncRNAs, paired-end, 101-bp sequencing was performed by Centrillion Genomic Services (Centrillion Biosciences, USA) on an Illumina HiSeq 2000. For DE gene analysis of ASO-transfected D04 samples, paired-end, 2×150-bp sequencing was performed by Genewiz (USA) on a Illumina HiSeq.
Sequence reads were aligned to the human genome (hg19) using TopHat (Version 2.0.11).
Differential expression (DE) analysis was done using DESeq2. Differentially expressed genes were defined by more than 1.5-fold changes (log 2 >0.58 or <−0.58) in expression with FDR<0.05. GO term analysis was done using DAVID Functional Annotation Clustering analysis.
To examine the biomolecular changes upon TRASH-inhibition in melanoma, D04 cells were treated with TRASH-ASOs (SEQ ID NO:15) and Control-ASOs and RNA was extracted and used for RNA-Seq. […] These GO terms consisted of genes encoding growth factors, tyrosine kinases, G protein coupled receptor subunits, and collagen subunits. Scatter plot diagram showing differential gene expression after TRASH-ASO treatment compared to Control-ASO treatment. (cut-off for significance was adjusted p-value <0.05). Data was obtained from RNA-Seq of D04 melanoma cells, treatment period was three days. (FIG. 5c)

[1] = D04 cells, three days, vs Control-ASO, cut off >1.5-fold change and FDR <0.05

GACTGGAGATAATTAA (gapmer, pattern not given here) [SEQ ID NO: 15, GapmeR ASO targeting AC004540.4 (TRASH), exon region of both isoforms; used for in vitro experiments]
log2FoldChange (CATSPERG (ENSG00000099338)): 1.259
log2FoldChange (CCDC187 (ENSG00000260220)): 2.881
log2FoldChange (CD274 (ENSG00000120217)): 1.226
log2FoldChange (CD300C (ENSG00000167850)): 2.474
log2FoldChange (CDH4 (ENSG00000179242)): 1.668
log2FoldChange (CELF2 (ENSG00000048740)): −0.6612
log2FoldChange (CFI (ENSG00000205403)): −0.6803
log2FoldChange (CHCHD10 (ENSG00000250479)): −0.6153
log2FoldChange (CHL1 (ENSG00000134121)): −0.6927
log2FoldChange (CHMP1B2P (ENSG00000278530)): −0.6924
log2FoldChange (CIITA (ENSG00000179583)): −0.6508
log2FoldChange (CLDN3 (ENSG00000165215)): 1.402
log2FoldChange (CNTN1 (ENSG00000018236)): −0.6103
log2FoldChange (CNTNAP3B (ENSG00000154529)): −0.6749
log2FoldChange (COL4A5 (ENSG00000188153)): −0.6293
log2FoldChange (COL20A1 (ENSG00000101203)): 2.951
log2FoldChange (COL27A1 (ENSG00000196739)): −0.6335
log2FoldChange (COLGALT2 (ENSG00000198756)): −0.6617
log2FoldChange (CREB3L3 (ENSG00000060566)): −0.704
log2FoldChange (CREG2 (ENSG00000175874)): −0.6351
log2FoldChange (CSF2RB (ENSG00000100368)): 3.672
log2FoldChange (CSMD3 (ENSG00000164796)): −0.6823
log2FoldChange (CX3CL1 (ENSG00000006210)): −0.5835
log2FoldChange (CYP4F32P (ENSG00000223564)): −0.6527
log2FoldChange (CYP27A1 (ENSG00000135929)): −0.625
number of genes down-regulated [1]: 574 genes
number of genes up-regulated [1]: 493 genes
log2FoldChange (DAW1 (ENSG00000123977)): 2.338
log2FoldChange (DBNDD1 (ENSG00000003249)): −0.6098
log2FoldChange (DCAF8L2 (ENSG00000189186)): −0.6365
log2FoldChange (DCLK1 (ENSG00000133083)): 2.001
log2FoldChange (DHRS3 (ENSG00000162496)): −0.6585
log2FoldChange (DHRS11 (ENSG00000278535)): −0.6876
log2FoldChange (DLEU7 (ENSG00000186047)): 1.438
log2FoldChange (DLG4 (ENSG00000132535)): −0.6697
log2FoldChange (DLX1 (ENSG00000144355)): −0.6655
log2FoldChange (DMPK (ENSG00000104936)): −0.6857
log2FoldChange (DNAH6 (ENSG00000115423)): 1.798
log2FoldChange (DNAH11 (ENSG00000105877)): 1.75
log2FoldChange (DOK7 (ENSG00000175920)): 1.741
log2FoldChange (DPF3 (ENSG00000205683)): 1.473
log2FoldChange (DRGX (ENSG00000165606)): 1.312
log2FoldChange (DYNC1I2 (ENSG00000077380)): −0.6997
log2FoldChange (EMILIN1 (ENSG00000138080)): −0.6247
log2FoldChange (ENO3 (ENSG00000108515)): −0.6026
log2FoldChange (ENOX1 (ENSG00000120658)): −0.7019
log2FoldChange (ENOX2 (ENSG00000165675)): −0.6448
log2FoldChange KDM7A (ENSG00000006459, up-regulated list): 0.6751
log2FoldChange CCL26 (ENSG00000006606, up-regulated list): 0.6667
log2FoldChange BIRC3 (ENSG00000023445, up-regulated list): 0.9484
log2FoldChange NEDD4L (ENSG00000049759, up-regulated list): 0.9476
log2FoldChange SLC4A8 (ENSG00000050438, up-regulated list): 1.215
log2FoldChange RRP12 (ENSG00000052749, up-regulated list): 0.614
log2FoldChange MCF2L2 (ENSG00000053524, up-regulated list): 0.71
log2FoldChange RASGRF1 (ENSG00000058335, up-regulated list): 1.152
log2FoldChange MPC1 (ENSG00000060762, up-regulated list): 0.9395
log2FoldChange GSTO2 (ENSG00000065621, up-regulated list): 0.6503
log2FoldChange SPTB (ENSG00000070182, up-regulated list): 0.7656
log2FoldChange ASNS (ENSG00000070669, up-regulated list): 0.7766
log2FoldChange SLC6A15 (ENSG00000072041, up-regulated list): 0.8053
log2FoldChange PPP2R3A (ENSG00000073711, up-regulated list): 0.6253
log2FoldChange FSCN1 (ENSG00000075618, up-regulated list): 0.7766
log2FoldChange ANKRD13A (ENSG00000076513, up-regulated list): 0.723
log2FoldChange DCT (ENSG00000080166, up-regulated list): 0.9874
log2FoldChange ATP8B1 (ENSG00000081923, up-regulated list): 0.9522
log2FoldChange SERTAD4 (ENSG00000082497, up-regulated list): 0.7371
log2FoldChange ABCB1 (ENSG00000085563, up-regulated list): 0.7955
log2FoldChange HSD17B2 (ENSG00000086696, up-regulated list): 0.6195
log2FoldChange LAT2 (ENSG00000086730, up-regulated list): 0.8215
log2FoldChange PPP1R15A (ENSG00000087074, up-regulated list): 0.8007
log2FoldChange LYZ (ENSG00000090382, up-regulated list): 0.9901
log2FoldChange EPB41L4B (ENSG00000095203, up-regulated list): 1.165
log2FoldChange TBC1D2 (ENSG00000095383, up-regulated list): 0.7709
log2FoldChange IL11 (ENSG00000095752, up-regulated list): 1.064
log2FoldChange DSP (ENSG00000096696, up-regulated list): 0.6307
log2FoldChange MISP (ENSG00000099812, up-regulated list): 1.058
log2FoldChange CDHR5 (ENSG00000099834, up-regulated list): 0.8144
log2FoldChange GGT1 (ENSG00000100031, up-regulated list): 0.8806
log2FoldChange IL2RB (ENSG00000100385, up-regulated list): 0.8537
log2FoldChange DHRS2 (ENSG00000100867, up-regulated list): 0.8953
log2FoldChange PYGB (ENSG00000100994, up-regulated list): 0.8557
log2FoldChange SLCO4A1 (ENSG00000101187, up-regulated list): 1.202
log2FoldChange LAMA1 (ENSG00000101680, up-regulated list): 0.7271
log2FoldChange SYP (ENSG00000102003, up-regulated list): 1.211
log2FoldChange NECAB2 (ENSG00000103154, up-regulated list): 0.9871
log2FoldChange NDRG1 (ENSG00000104419, up-regulated list): 0.6175
log2FoldChange TRMT1 (ENSG00000104907, up-regulated list): 0.655
